“Also recorded” adds a separate entry of the source. Where two headings read alike, the source gives them in different places.
Experiments:
[1] = target: T1, DENV2 NS2B-CLuc-NS3-119-NLuc-NS3 120-to-NS3_C (N2CN3N) (UniProt P08659+P14340); format: biochemical; conditions: for suppression of NPGB-induced SLC enhancement / effect of compound alone on background SLC: compound 40 μM; for suppression of NPGB-induced SLC enhancement: N2CN3N 150 nM; for effect of compound alone on background SLC: no NPGB, compared to DMSO; for inhibition of NPGB-induced SLC enhancement, concentration series: serial dilution of compound
T1 construct: pairs of primers of 1394F and 1440C for NS2B and 1476F and 1660C for NS3; made in house; host or cells: Escherichia coli Rosetta 2(DE3)

[2] = target: T2, full-length firefly luciferase (FLuc) (Photinus pyralis, UniProt P08659); format: biochemical; conditions: FLuc 150 nM, compound 30 μM
T2 construct: or full length Firefly luciferase (150 nM final concentration)

N2CN3N A125C mutant = target: T3, N2CN3N A125C mutant (UniProt P08659+P14340); format: biochemical
T3 construct: pairs of primers of 1394F and 1440C for NS2B and 1476F and 1660C for NS3; made in house; host or cells: Escherichia coli Rosetta 2(DE3)

unlinked DENV2 NS2B/NS3 = target: T4, unlinked DENV2 NS2B/NS3 (Dengue virus type 2, UniProt P14340); assay: Protein thermal shift assay (PTSA), unlinked DENV2 NS2B/NS3; format: binding; conditions: unlinked NS2B/NS3 2.5 μM, compound 4.8 μM
T4 construct: pairs of primers of 1394F and 1440C for NS2B and 1476F and 1660C for NS3; made in house; host or cells: Escherichia coli Rosetta 2(DE3)
Excerpt: N = 3. […] N = 3. […] PP, ZIKV polyprotein precursor. **, p<0.05.

[3] = target: T5, DENV2 NS2B-NS3 I123A mutant (Dengue virus type 2, UniProt P14340, I1598A); format: binding
ZIKV [4] = conditions: A549 cells
[5] = target: T6, DENV2 NS2B-NS3 N152A mutant (Dengue virus type 2, UniProt P14340, N1627A); format: biochemical; conditions: compound 6 μM, protein 150 nM, vs DMSO
YFV [6] = tested on: YFV
[7] = target: T7, DENV2 NS2B-NS3 K74A mutant (Dengue virus type 2, UniProt P14340, K1549A); format: binding
[8] = target: T8, DENV2 NS2B-NS3 V154A mutant (Dengue virus type 2, UniProt P14340, V1629A); format: biochemical; conditions: compound 6 μM, protein 150 nM, vs DMSO
WNV [9] = assay: microbe, parasite or virus in culture; conditions: West Nile virus, A549, 48 h, read-out: EC50, WNV viral reduction
[10] = tested on: ZIKV NS3 / polyprotein precursor; assay: Western blot of ZIKV NS3 expression and polyprotein processing in infected A549 cells
in vitro = conditions: human
ZIKV [11] = assay: microbe, parasite or virus in culture; format: cell-based; conditions: hNPCs, MOI 2
[12] = target: T5, DENV2 NS2B-NS3 I123A mutant; format: biochemical; conditions: compound 6 μM, protein 150 nM, vs DMSO
DENV2 [13] = conditions: for DENV2 viral production (titer) relative to DMSO control: compound at 1, 10 and 100 μM, 48 h post-infection
ZIKV [14] = assay: microbe, parasite or virus in culture; format: cell-based; conditions: HPECs, MOI 2
[15] = target: T8, DENV2 NS2B-NS3 V154A mutant; format: binding
YFV [16] = assay: microbe, parasite or virus in culture; conditions: Yellow fever virus, A549, 48 h, read-out: EC50, YFV viral reduction
ZIKV [17] = assay: microbe, parasite or virus in culture; conditions: Zika virus, A549, 48 h, read-out: EC50, ZIKV viral reduction
[18] = target: T9, unlinked ZIKV NS2B/NS3 protease (Zika virus, UniProt A0A024B7W1); assay: ZIKV unlinked NS2B/NS3 protease inhibition assay; format: biochemical; conditions: protease 150 nM
T9 construct: The construct contains the NS2B residues 49–95 and the NS3 residues 1–185; made in house; host or cells: E. coli (Rosetta 2(DE3))
Excerpt: As flavivirus NS3 is highly conserved (Fig 3C), it is possible that the inhibitors identified are broad spectrum flavivirus inhibitors. We therefore investigated whether NSC135618 is effective against other flaviviruses. Because ZIKV treatment currently has the most urgent need, we evaluated the efficacy of the compound on ZIKV. To this end, we first constructed an unlinked NS2B/NS3 heterocomplex of ZIKV in the pET28a vector by engineering a 3C protease cleavage site within the GGGSGGGG linker region between NS2B and NS3. The NS2B/NS3 protease was first expressed as a His-tagged covalently linked single chain protein in E coli. The unlinked ZIKV NS2B/NS3 protease complex was generated by on-column digestion with thrombin and 3C proteases, followed by gel filtration chromatography.
Fig 7 Inhibition of the ZIKV protease activity, viral titer, protein expression, and viral RNA replication by NSC135618. […] ST, molecular weight (MW) standard. (B) Dose response inhibition of the unlinked ZIKV NS2B-NS3 protease by NSC135618. The NS2b/NS3 protease was at 150 nM. N = 3. (C) Dose-dependent inhibition of ZIKV by NSC135618 in A549 cells. Viral plaque reduction assay was used. N = 3. (D) Immunofluorescence assay (IFA) of inhibition of viral protein expression for ZIKV-infected A549 cells by NSC135618, using pan flavivirus anti-E antibody 4G2. […]

[19] = target: T7, DENV2 NS2B-NS3 K74A mutant; format: biochemical; conditions: compound 6 μM, protein 150 nM, vs DMSO
WNV [20] = tested on: WNV
DENV2 [21] = assay: microbe, parasite or virus in culture; conditions: Dengue virus, A549, 48 h, read-out: EC50, DENV2 viral reduction
[22] = target: T6, DENV2 NS2B-NS3 N152A mutant; format: binding
N2CN3N A125W mutant = target: T10, N2CN3N A125W mutant (UniProt P08659+P14340); format: biochemical; conditions: A125W mutant 150 nM, NPGB 30 μM
T10 construct: pairs of primers of 1394F and 1440C for NS2B and 1476F and 1660C for NS3; made in house; host or cells: Escherichia coli Rosetta 2(DE3)

[23] = protein 2.5 μM, compound 4.8 μM

T2 sequence (P08659 whole entry): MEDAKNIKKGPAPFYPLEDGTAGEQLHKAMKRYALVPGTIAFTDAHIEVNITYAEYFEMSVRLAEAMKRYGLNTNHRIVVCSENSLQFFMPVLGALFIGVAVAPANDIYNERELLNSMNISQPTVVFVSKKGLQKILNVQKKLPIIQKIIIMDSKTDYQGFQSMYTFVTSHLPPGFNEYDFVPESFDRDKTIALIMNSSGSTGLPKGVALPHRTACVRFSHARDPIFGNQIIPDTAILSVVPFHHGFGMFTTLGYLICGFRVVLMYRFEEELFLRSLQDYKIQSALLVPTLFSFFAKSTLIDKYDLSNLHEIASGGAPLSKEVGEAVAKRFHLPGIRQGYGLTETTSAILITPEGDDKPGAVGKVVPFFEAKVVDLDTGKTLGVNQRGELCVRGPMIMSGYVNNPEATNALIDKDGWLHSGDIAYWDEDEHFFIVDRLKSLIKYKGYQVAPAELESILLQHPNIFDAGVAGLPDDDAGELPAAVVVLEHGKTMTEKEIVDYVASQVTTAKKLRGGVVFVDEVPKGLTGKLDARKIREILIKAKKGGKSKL
T1 sequence (P08659 whole entry, looked up, other chains not shown): as the sequence (P08659 whole entry) above

O=C(O)c1cc(SSc2ccc([N+](=O)[O-])c(C(=O)O)c2)ccc1[N+](=O)[O-] [DTNB, 5,5'-dithio-bis-[2-nitrobenzoic acid]]
effect on NPGB-triggered SLC enhancement of WT N2CN3N [1]: significantly abolished the active site inhibitor NPGB-triggered SLC enhancement
effect on luciferase (baseline SLC) activity of WT N2CN3N [1]: did not significantly affect the luciferase activity
effect on luciferase activity of full-length FLuc [2]: do not affect the luciferase activity; also recorded: did not significantly affect the luciferase activity
effect on baseline SLC signal of A125C mutant (N2CN3N A125C mutant; DTNB 30 μM alone): only slightly decreased the baseline SLC signal
effect on NPGB-triggered SLC enhancement of A125C mutant (N2CN3N A125C mutant; DTNB 30 μM with NPGB 30 μM): completely abolished the SLC enhancement

O=C1C=CC(=NNc2ccc([N+](=O)[O-])cc2Cl)C=C1C(=O)Nc1cccc(Cl)c1 [NSC135618]
increase of melting temperature (ΔTm) vs DMSO (unlinked DENV2 NS2B/NS3): 4.8 °C
Tm (I123A) ([3]; Fig 10D): 44.34 °C
ΔTm (I123A) [3, 23]: 2.69 °C
ZIKV viral protein expression (IFA, anti-E antibody 4G2) (ZIKV [4]): greatly reduced viral protein expression
EC50, ZIKV viral reduction (ZIKV [4]; MOI 0.1, 48 h): low micromolar range
ZIKV viral RNA copy numbers (qRT-PCR) (ZIKV [4]; supernatant): greatly reduced
TI (therapeutic index, CC50/EC50) (ZIKV [4]; ZIKV): 49
suppression of NPGB-induced SLC enhancement ([1]; NPGB 30 μM): abolish the SLC enhancement induced by NPGB to the background level
effect of compound alone on background SLC [1]: did not have significant effect on background SLC
inhibition of NPGB-induced SLC enhancement, concentration series ([1]; NPGB 30 μM): significantly suppressed the SLC enhancement; also recorded: clearly inhibited the NPGB-induced SLC enhancement in a dose dependent manner
inhibition of protease activity of N152A mutant [5]: completely abolished the inhibition activity
EC50, YFV viral reduction (YFV [6]): low micromolar range
TI (therapeutic index, CC50/EC50) (YFV [6]): 174
Tm (K74A) ([7]; Fig 10D): 42.19 °C
ΔTm (K74A) [7, 23]: 2.48 °C
inhibition of protease activity of V154A mutant [8]: slightly reduced the inhibition activity
EC50 (WNV [9]): 1.27 µM
unprocessed viral polyprotein precursor (high MW band, Western blot) ([10]; 0.19 μM to 3 μM): accumulation of high molecular weight (MW) protein
ZIKV NS3 expression (Western blot, normalized to GAPDH) ([10]; 0.75 μM to 6 μM, 48 h): significant inhibition of ZIKV NS3 expression
viral protein expression (Western blot) ([10]; 6 μM): nearly completely suppressed viral protein expression
CC50 (in vitro): 48.8 µM
EC50 (ZIKV [11]; Zika virus, read-out: EC50, ZIKV inhibition in hNPCs): 1.9 µM
ZIKV RNA replication (qRT-PCR) (ZIKV [11]): considerably reduce
ZIKV protein expression (IFA) (ZIKV [11]): considerably reduce
reduction of ZIKV titers (ZIKV [11]): considerably reduce ZIKV titers
inhibition of protease activity of I123A mutant [12]: retains its inhibition activity
DENV2 viral RNA copy numbers (qRT-PCR) (DENV2 [13]; A549 cells): greatly reduced viral RNA copy numbers in a dose dependent manner
EC50, DENV2 viral reduction (DENV2 [13]; A549 cells, MOI 0.1, 48 h): low micromolar range
DENV2 viral production (titer) relative to DMSO control (DENV2 [13]; A549 cells): significantly reduced
TI (therapeutic index, CC50/EC50) (DENV2 [13]; DENV2, A549 cells): 60
ZIKV RNA replication (qRT-PCR) (ZIKV [14]): drastically decreased ZIKV RNA replication
ZIKV protein expression (IFA) (ZIKV [14]): drastically decreased
inhibition of ZIKV (titer) (ZIKV [14]): effectively inhibited ZIKV in HPECs in a dose-dependent manner
EC50 (ZIKV [14]; Zika virus, Epithelial cell, read-out: EC50, ZIKV inhibition in HPECs): 1 µM
Tm (V154A) ([15]; Fig 10D): 52.09 °C
ΔTm (V154A) [15, 23]: 1.75 °C
EC50 (YFV [16]): 0.28 µM
EC50 (ZIKV [17]): 1 µM
IC50 [18]: 0.38 µM
inhibition of protease activity of K74A mutant [19]: retains its inhibition activity
TI (therapeutic index, CC50/EC50) (WNV [20]): 38
EC50, WNV viral reduction (WNV [20]; A549 cells, MOI 0.1, 48 h): low micromolar range
EC50 (DENV2 [21]): 0.81 µM
Tm (N152A) ([22]; Fig 10D): 53.63 °C
ΔTm (N152A) [22, 23]: 0.55 °C

O=C(Nc1ccc(Nc2ccncc2)cc1)c1ccc(Nc2ccnc3ccc([N+](=O)[O-])cc23)cc1 [NSC146771]
suppression of NPGB-induced SLC enhancement ([1]; NPGB 30 μM): abolish the SLC enhancement induced by NPGB to the background level
effect of compound alone on background SLC [1]: did not have significant effect on background SLC
inhibition of NPGB-induced SLC enhancement, concentration series ([1]; NPGB 30 μM): did not inhibit the NPGB-induced SLC enhancement until very high concentration
CC50 (in vitro): 82 µM
DENV2 viral production (titer) relative to DMSO control (DENV2 [13]; A549 cells): no appreciable effect; also recorded: did not show any inhibition
EC50 (DENV2 [21]): > 100 µM

Cn1ccc(=Nc2ccc(NC(=O)c3ccc(N=c4ccn(C)c5ccc([N+](=O)[O-])cc45)cc3)cc2)cc1 [NSC260594]
suppression of NPGB-induced SLC enhancement ([1]; NPGB 30 μM): abolish the SLC enhancement induced by NPGB to the background level
effect of compound alone on background SLC [1]: did not have significant effect on background SLC
inhibition of NPGB-induced SLC enhancement, concentration series ([1]; NPGB 30 μM): did not inhibit the NPGB-induced SLC enhancement until very high concentration
CC50 (in vitro): > 500 µM
DENV2 viral production (titer) relative to DMSO control (DENV2 [13]; A549 cells): significantly reduced
EC50 (DENV2 [21]): 13.5 µM

Nitrophenyl p-guanidinobenzoate [NPGB]
SLC enhancement upon addition of active-site inhibitor (N2CN3N A125W mutant): SLC enhancement was not observed
SLC enhancement compared to DMSO control ([1]; WT N2CN3N 150 nM, NPGB 30 μM): 4.2 fold
effect on luciferase activity of full-length FLuc [2]: do not affect the luciferase activity; also recorded: did not have any effects
SLC enhancement compared to DMSO control (N2CN3N A125C mutant; A125C mutant 150 nM, NPGB 30 μM): 2.2 fold
